We go through 44 compounds from patent US6867284B1, “Peptide inhibitors of hepatitis C virus NS3 protease” (Istituto di Ricerche di Biologia Molecolare P. Angeletti …, priority 1998, dated 2005).

Numbered stars: 1 amine (or outer) side, 2 acyl side, 3 side chain; on linkers, the order of the positions; unused ones are H or OH. Square brackets hold non-standard residues; d marks the D form. Peptide text beside a SMILES is read from it. * marks the point of attachment. Dip = N[C@H](C(=O)O)C(c1ccccc1)c1ccccc1; X5 = O=C(c1nc2ccccc2s1)C(CC(F)F)N*; X1 = O=C(c1ncc[nH]1)C(CC(F)F)N*; Cha = N[C@@H](CC1CCCCC1)C(=O)O; X3 = O=C(C(CC(F)F)N[*:1])[*:2]; X2 = O=C(c1ccco1)C(CC(F)F)N*; X9 = O=C(O)CC(CC(F)F)N*

The target in one test is T1, HCV NS3 protease (Hepatitis C virus genotype 1b, UniProt P26663).
T1 construct: an NS3/4A complex comprising the NS3 protease domain
T1 sequence (P26663 1027-1208, other chains not shown): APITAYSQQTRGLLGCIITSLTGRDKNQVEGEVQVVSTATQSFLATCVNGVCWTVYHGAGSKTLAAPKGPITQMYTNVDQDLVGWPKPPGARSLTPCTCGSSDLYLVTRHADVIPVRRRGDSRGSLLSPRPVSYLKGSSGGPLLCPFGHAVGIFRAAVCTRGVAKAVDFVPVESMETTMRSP
Nature of the test: Inhibition of NS3 protease (HPLC cleavage assay, NS3/4A complex with Pep4AK, substrate peptide 4AB). The format is biochemical.
Conditions: not given
The method, then:
Buffer solutions containing 80 μM Pep4AK were preincubated for 10 minutes with 10-200 nM protease and reactions were started by addition of substrate. Six duplicate data points at different substrate concentrations were used to calculate kinetic parameters. Incubation times were chosen in order to obtain <7% substrate conversion and reactions were stopped by addition of 40 μl 1% TFA. Cleavage of peptide substrates was determined by HPLC using a Merck-Hitachi chromatograph equipped with an autosampler. 80 μl samples were injected on a Lichrospher C18 reversed phase cartridge column (4×74 mm, 5 μm, Merck) and fragments were separated using a 10-40% acetonitrile gradient a 5%/min using a flow rate of 2.5 ml/min. Peak detection was accomplished by monitoring both the absorbance at 220 nm and tyrosine fluorescence (λex=260 nm, λem=305 nm). Cleavage products were quantitated by integration of chromatograms with respect to appropriate standards. Kinetic parameters were calculated from nonlinear least-squares fit of initial rates as a function of substrate concentration with the help of a Kaleidagraph software, assuming Michaelis-Menten kinetics.
Ki values of peptide inhibitors were calculated from substrate titration experiments performed in the presence of increasing amounts of inhibitor. Experimental data sets were simultaneously fitted to eq.1 using a multicurve fit macro with the help of a Sigmaplot software: V=(VmaxS)/(Km(1+[…])+S); (eq.1)
Alternatively, Ki values were derived from IC50 values, calculated using a four-parameter logistic function, according to eq.2: IC50−(1+S/Km)Ki (eq.2)
On to `CC(C)C[C@H](NC(=O)CC(CC(=O)O)c1ccccc1)C(=O)NC(CC(F)F)C(=O)C(=O)O` (mixture of isomers) [Compound 7j], for which the IC50 came to 26000 nM.

Staying with this test, now noted: Table 1 hexapeptides, cells printed in nM; read-out: IC50.
For `CC(=O)N[C@@H](CC(=O)O)C(=O)N[C@@H](CCC(=O)O)C(=O)N[C@H](C(=O)N[C@@H](CCC(=O)O)C(=O)N[C@@H](CC1CCCCC1)C(=O)NC(CC(F)F)C(=O)c1nc2ccccc2s1)C(c1ccccc1)c1ccccc1` (some centres unmarked) [Compound 1i] (Ac-DE[Dip]E[Cha]-X5), the IC50 was determined as 150 nM.
`CSCC[C@H](NC(=O)[C@H](CCC(=O)O)NC(=O)[C@H](CC(=O)O)NC(C)=O)C(=O)N[C@@H](CCC(=O)O)C(=O)N[C@@H](CCC(=O)O)C(=O)NC(C=O)CC(F)F` (some centres unmarked) [Compound 1n] (Ac-DEMEE[X3]-aldehyde): the IC50 came to 148 nM.
With `CC(=O)N[C@@H](CC(=O)O)C(=O)N[C@@H](CCC(=O)O)C(=O)N[C@H](C(=O)N[C@@H](CCC(=O)O)C(=O)N[C@@H](CC1CCCCC1)C(=O)NC(CC(F)F)C(=O)O)C(c1ccccc1)c1ccccc1` (single isomer, unassigned) [Compound 1b (L)], the IC50 stood at 20 nM.

The same test, now with this note: Table 1 hexapeptides, cells printed in μM; read-out: IC50.
On to `CC(=O)N[C@@H](CC(=O)O)C(=O)N[C@@H](CCC(=O)O)C(=O)N[C@H](C(=O)N[C@@H](CCC(=O)O)C(=O)N[C@@H](CC1CCCCC1)C(=O)NC(CC(F)F)C(=O)c1ncc[nH]1)C(c1ccccc1)c1ccccc1` (some centres unmarked) [Compound 1l] (Ac-DE[Dip]E[Cha]-X1), for which the IC50 stood at 6000 nM.
Consider `CC(=O)N[C@@H](CC(=O)O)C(=O)N[C@@H](CCC(=O)O)C(=O)N[C@H](C(=O)N[C@@H](CCC(=O)O)C(=O)N[C@@H](CC1CCCCC1)C(=O)NC(CC(F)F)C(=O)c1ccco1)C(c1ccccc1)c1ccccc1` (some centres unmarked) [Compound 1m] (Ac-DE[Dip]E[Cha]-X2), for which the IC50 came to 7000 nM.
Still for that read-out and setting: the same measure for `CC(=O)N[C@@H](CC(=O)O)C(=O)N[C@@H](CCC(=O)O)C(=O)N[C@H](C(=O)N[C@@H](CCC(=O)O)C(=O)N[C@@H](CC1CCCCC1)C(=O)NC(CC(=O)O)CC(F)F)C(c1ccccc1)c1ccccc1` (some centres unmarked) [Compound 1h] (Ac-DE[Dip]E[Cha]-X9): 3000 nM.

Still in this test, the particulars now being: Table 2 tetrapeptides and tripeptides; read-out: IC50.
As for `CC(C)C[C@H](NC(=O)[C@@H](NC(=O)OCc1ccccc1)C(C)C)C(=O)NC(C=O)CC(F)F` (some centres unmarked) [Compound 6b], the IC50 is 50000 nM.
On the same count and under the same terms, with `CCC(C)[C@H](NC(=O)NCc1cc(C(F)(F)F)cc(C(F)(F)F)c1)C(=O)N[C@@H](CC(C)C)C(=O)NC(CC(F)F)C(=O)C(=O)O` (some centres unmarked) [Compound 4b] the figure was 39000 nM; with `CC(C)C[C@H](NC(=O)[C@H](C/C=C/c1ccccc1)NC(=O)OC(C)(C)C)C(=O)NC(CC(F)F)C(=O)C(=O)O` (some centres unmarked) [Compound 5p], 2400 nM.
On the same count and under the same terms, with `CC(=O)N[C@H]1Cc2cccc(c2)Oc2ccc(cc2)C[C@@H](C(=O)NC(CC(F)F)C(=O)C(=O)O)NC(=O)[C@H](CCC(=O)O)NC1=O` (some centres unmarked) [Compound 2c] the figure was 47000 nM.
Same read-out and setting: the same measure for `CC(C)CC[C@H](NC(=O)OC(C)(C)C)C(=O)N[C@@H](CC(C)C)C(=O)NC(CC(F)F)C(=O)C(=O)O` (some centres unmarked) [Compound 5q]: 1600 nM; for `CCC(C)[C@H](NC(=O)OCc1ccccc1)C(=O)N[C@@H](CC1CCCCC1)C(=O)NC(CC(F)F)C(=O)C(=O)O` (some centres unmarked) [Compound 3b]: 1400 nM; for `CCC(C)[C@H](NC(=O)OC(C)(C)C)C(=O)N[C@@H](CC(C)C)C(=O)NC(CC(F)F)C(=O)C(=O)O` (some centres unmarked) [Compound 4f]: 1000 nM.
For the compound `CC(C)C[C@H](NC(=O)[C@@H](NC(=O)OC(C)(C)C)C(C)(C)C)C(=O)NC(CC(F)F)C(=O)C(=O)O` (some centres unmarked) [Compound 5n], the IC50 worked out at 720 nM.
On the same count and under the same terms, the same measure for `CC(C)C[C@H](NC(=O)[C@H](Cc1ccc(Cl)c(Cl)c1)NC(=O)OC(C)(C)C)C(=O)NC(CC(F)F)C(=O)C(=O)O` (some centres unmarked) [Compound 5r]: 5800 nM; for `CC(C)C[C@H](NC(=O)OC(C)(C)C)C(=O)N[C@@H](CC(C)C)C(=O)NC(CC(F)F)C(=O)C(=O)O` (some centres unmarked) [Compound 5b]: 1200 nM; for `CCC[C@H](NC(=O)OC(C)(C)C)C(=O)N[C@@H](CC(C)C)C(=O)NC(CC(F)F)C(=O)C(=O)O` (some centres unmarked) [Compound 5h]: 1500 nM.
As to `CC(C)C[C@H](NC(=O)[C@H](Cc1cccs1)NC(=O)OC(C)(C)C)C(=O)NC(CC(F)F)C(=O)C(=O)O` (some centres unmarked) [Compound 5s], the IC50 is 3800 nM.

Still in this test, the particulars now being: Table 3 capped dipeptide keto acids; read-out: IC50.
In the case of `CC(C)C[C@H](NC(=O)[C@H](O)c1ccccc1)C(=O)NC(CC(F)F)C(=O)C(=O)O` (mixture of isomers) [Compound 8n], the IC50 was 6000 nM.
On the same count and under the same terms, with `CC(C)C[C@H](NC(=O)CC1(CC(=O)O)OCCO1)C(=O)NC(CC(F)F)C(=O)C(=O)O` (single isomer, unassigned) [Compound 7p] the figure was 15000 nM; with `COc1ccc([C@@H](O)C(=O)N[C@@H](CC(C)C)C(=O)NC(CC(F)F)C(=O)C(=O)O)cc1` (mixture of isomers) [Compound 8p], 25000 nM; with `CC(C)C[C@H](NC(=O)C1(CCC(=O)O)CCCC1)C(=O)NC(CC(F)F)C(=O)C(=O)O` (mixture of isomers) [Compound 7o], 22000 nM.
On the same count and under the same terms, with `CC(C)C[C@H](NC(=O)CC1(CC(=O)O)CCCCC1)C(=O)NC(CC(F)F)C(=O)C(=O)O` (mixture of isomers) [Compound 7q] the figure was 2000 nM; with `CC(C)C[C@H](NC(=O)C(Sc1ccccc1)c1ccccc1)C(=O)NC(CC(F)F)C(=O)C(=O)O` (mixture of isomers) [Compound 8i], 28000 nM; with `CC(C)C[C@H](NC(=O)[C@H](O)c1cccs1)C(=O)NC(CC(F)F)C(=O)C(=O)O` (single isomer, unassigned) [Compound 8s], 18000 nM.
On the same count and under the same terms, the same measure for `CC(C)C[C@H](NC(=O)[C@H](O)c1ccccc1Cl)C(=O)NC(CC(F)F)C(=O)C(=O)O` (mixture of isomers) [Compound 8r]: 82000 nM; for `CC(C)C[C@H](NC(=O)COCC(=O)O)C(=O)NC(CC(F)F)C(=O)C(=O)O` (mixture of isomers) [Compound 7h]: 32000 nM.
As for `CC(C)C[C@H](NC(=O)CN(CC(=O)O)C(=O)OCc1ccccc1)C(=O)NC(CC(F)F)C(=O)C(=O)O` (single isomer, unassigned) [Compound 7i], the IC50 was determined as 20000 nM.
Same read-out and setting: with `CC(C)C[C@H](NC(=O)C1OC(=O)CC12CCCC2)C(=O)NC(CC(F)F)C(=O)C(=O)O` (mixture of isomers) [Compound 8m] the figure was 60000 nM.
Same read-out and setting: the same measure for `CC(C)C[C@H](NC(=O)[C@H](O)C1CCCCC1)C(=O)NC(CC(F)F)C(=O)C(=O)O` (mixture of isomers) [Compound 8l]: 14000 nM; for `COC(=O)CC1(CC(=O)N[C@@H](CC(C)C)C(=O)NC(CC(F)F)C(=O)C(=O)O)CCCC1` (mixture of isomers) [Compound 7m]: 85000 nM; for `CC(C)C[C@H](NC(=O)CC(CC(=O)O)c1ccc(Cl)cc1)C(=O)NC(CC(F)F)C(=O)C(=O)O` (mixture of isomers) [Compound 7k]: 35000 nM.

The same test, now with this note: Table 4 indoline keto acids and related; read-out: IC50.
Take `CC(C)C[C@H](NC(=O)C1(Cc2cccc(Br)c2)Cc2ccccc2N1)C(=O)NC(CC(F)F)C(=O)C(=O)O` (mixture of isomers) [Compound 9r]: the IC50 worked out at 100000 nM.
Still for that read-out and setting: the same measure for `CC(C)C[C@H](NC(=O)C1(Cc2ccc(Cl)s2)Cc2ccccc2N1)C(=O)NC(CC(F)F)C(=O)C(=O)O` (mixture of isomers) [Compound 9w]: 3000 nM.
Consider `CC(C)C[C@H](NC(=O)C1(C(C)C)Cc2ccccc2N1)C(=O)NC(CC(F)F)C(=O)C(=O)O` (mixture of isomers) [Compound 9c], for which the IC50 is 92000 nM.
The same measure, in the same setting: the same measure for `CC(C)C[C@H](NC(=O)C1(Cc2cccc(C(=O)O)c2)Cc2ccccc2N1)C(=O)NC(CC(F)F)C(=O)C(=O)O` (single isomer, unassigned) [Compound 9u]: 800 nM.
Take `CC(C)C[C@H](NC(=O)C1Cc2ccc(OCC3CC3)cc2N1)C(=O)NC(CC(F)F)C(=O)C(=O)O` (mixture of isomers) [Compound 10d]: the IC50 was 66000 nM.
Same read-out and setting: with `CC(C)C[C@H](NC(=O)C1(Cc2cccc(Oc3ccccc3)c2)Cc2ccccc2N1)C(=O)NC(CC(F)F)C(=O)C(=O)O` (mixture of isomers) [Compound 9v] the figure was 24000 nM.
Still for that read-out and setting: the same measure for `COc1ccc2c(c1)NC(CC(C)C)(C(=O)N[C@@H](CC(C)C)C(=O)NC(CC(F)F)C(=O)C(=O)O)C2` (single isomer, unassigned) [Compound 10b]: 24000 nM.
Consider `COc1ccc2c(c1)NC(C(=O)N[C@@H](CC(C)C)C(=O)NC(CC(F)F)C(=O)C(=O)O)C2` (single isomer, unassigned) [Compound 10a], for which the IC50 turned out to be 25000 nM.
Still for that read-out and setting: with `CC(C)CCC1(C(=O)N[C@@H](CC(C)C)C(=O)NC(CC(F)F)C(=O)C(=O)O)Cc2ccccc2N1` (mixture of isomers) [Compound 9f] the figure was 120000 nM; with `CC(C)C[C@H](NC(=O)C1(CC(C)C)Cc2ccc(Oc3ccccc3)cc2N1)C(=O)NC(CC(F)F)C(=O)C(=O)O` (mixture of isomers) [Compound 10c], 100000 nM.
On the same count and under the same terms, with `CC(C)=CCC1(C(=O)NC(CC(C)C)C(=O)NC(CC(F)F)C(=O)C(=O)O)Cc2ccccc2N1` (mixture of isomers) [Compound 9e] the figure was 69000 nM.

By IC50 is commonly meant the concentration needed to halve the response being measured.
